ChEMBL document CHEMBL1201862, “PubChem BioAssay data set” (2004)
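Protocol summary: plate cells (96-well), add compound at 5 concentrations, incubate 48 h, interpolate endpoints linearly. GI50 is the concentration that inhibits growth by half.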 Calls of active or inactive are those of the source. No stated cut-off is given here; in the data, active = GI50 up to about 1.1 µM and inactive = higher.

Experiments:
Assay in all cases: inhibition of tumour cell growth, NCI panel, 48 h
T47D = system: T47D
SF-268 = system: SF-268
MCF7 = system: MCF7
DU-145 = system: DU-145
BT-549 = system: BT-549
MDA-N = system: MDA-N
OVCAR-5 = system: OVCAR-5
NCI-H460 = system: NCI-H460
CCRF-CEM = system: CCRF-CEM
CAKI-1 = system: CAKI-1
MOLT-4 = system: MOLT-4
MDA-MB-231 = system: MDA-MB-231
Malme-3M = system: Malme-3M
OVCAR-3 = system: OVCAR-3
SNB-75 = system: SNB-75
786-0 = system: 786-0
TK-10 = system: TK-10
HOP-62 = system: HOP-62
NCI-H226 = system: NCI-H226
UACC-257 = system: UACC-257

Measured: GI50

O=[N+]([O-])/C=C/c1cc2ccccc2[nH]1
inactive: T47D 16.2 µM | SF-268 16.9 µM | MCF7 4.03 µM | DU-145 15.4 µM | BT-549 15.6 µM | MDA-N 3.24 µM | OVCAR-5 19.5 µM | NCI-H460 14.6 µM | CCRF-CEM 2.99 µM | CAKI-1 17.4 µM | MOLT-4 15.2 µM | MDA-MB-231 18.2 µM | Malme-3M 27.5 µM | OVCAR-3 14.8 µM | SNB-75 15.2 µM | 786-0 14.6 µM | TK-10 17.5 µM | HOP-62 16.5 µM | NCI-H226 19.1 µM | UACC-257 15.4 µM

C[C@@H]1C(=O)C[C@H]2C(C)(C)CCC[C@]2(C)[C@@]1(O)CCc1ccoc1
inactive: T47D 82 µM | SF-268 96.4 µM | MCF7 > 100 µM | DU-145 > 100 µM | BT-549 > 100 µM | MDA-N > 100 µM | OVCAR-5 > 100 µM | NCI-H460 > 100 µM | CCRF-CEM > 100 µM | CAKI-1 > 100 µM | MOLT-4 80.4 µM | MDA-MB-231 > 100 µM | Malme-3M > 100 µM | OVCAR-3 > 100 µM | SNB-75 > 100 µM | 786-0 > 100 µM | TK-10 > 100 µM | HOP-62 > 100 µM | NCI-H226 13.4 µM | UACC-257 > 100 µM

CC(C)[C@H](NC(=O)[C@H](N)Cc1ccc(N(CCCl)CCCl)cc1)C(=O)O
inactive: T47D > 100 µM | SF-268 > 100 µM | MCF7 > 100 µM | DU-145 > 100 µM | BT-549 > 100 µM | MDA-N > 100 µM | OVCAR-5 > 100 µM | NCI-H460 > 100 µM | CCRF-CEM 78.7 µM | CAKI-1 > 100 µM | MOLT-4 29.3 µM | MDA-MB-231 > 100 µM | Malme-3M > 100 µM | OVCAR-3 > 100 µM | SNB-75 > 100 µM | 786-0 > 100 µM | TK-10 > 100 µM | HOP-62 > 100 µM | NCI-H226 > 100 µM | UACC-257 > 100 µM

O=C(/C=C/c1ccsc1)c1cccs1
inactive: T47D 20 µM | SF-268 28.2 µM | MCF7 17 µM | DU-145 > 100 µM | BT-549 20.8 µM | MDA-N 35 µM | OVCAR-5 44.1 µM | NCI-H460 41.7 µM | CCRF-CEM 18.5 µM | CAKI-1 27.3 µM | MOLT-4 > 10 µM | MDA-MB-231 36 µM | Malme-3M 50 µM | OVCAR-3 22.1 µM | SNB-75 > 100 µM | 786-0 49.3 µM | TK-10 23.1 µM | HOP-62 > 100 µM | NCI-H226 > 100 µM | UACC-257 66.8 µM

O=C(C[C@@H]1CCCN2CCCC[C@H]12)N1c2ccccc2Sc2ccc(Cl)cc21
inactive: T47D 20.5 µM | SF-268 19.2 µM | MCF7 18.2 µM | DU-145 14 µM | BT-549 14.7 µM | MDA-N 16 µM | OVCAR-5 13.4 µM | NCI-H460 14.7 µM | CCRF-CEM 15 µM | CAKI-1 14.4 µM | MOLT-4 11.8 µM | MDA-MB-231 14.7 µM | Malme-3M 16.2 µM | OVCAR-3 16.2 µM | SNB-75 13.8 µM | 786-0 11.1 µM | TK-10 20 µM | HOP-62 13 µM | NCI-H226 27.6 µM | UACC-257 11.6 µM
